Results published in US9428519B2, “Acylated derivative of homoharringtonine, preparation method therefor, and application thereof” (HANGZHOU BENSHENG PHARMACEUTICAL CO., LTD., priority 2011, dated 2016).
Converted amounts (≈) assume the structure as drawn.

How the values were obtained:
[1] = system: RPMI8226 (multiple myeloma); test: MTT growth inhibition of multiple myeloma cells, 72 h; assay type: cell-based, human
How it was run: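 RPMI8226 cells (6000/well) in 1640 medium with 10% FBS were exposed to graded compound concentrations for 72 h at 37 °C, 5% CO2. Viable cells were read by MTT, normalised to untreated control as 100% viability, and 72 h IC50 calculated.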

[2] = system: Kasumi-1 (acute myeloid leukemia M2 type, AML-M2); test: MTT growth inhibition of leukemia cells, 72 h; assay type: cell-based, human
How it was run: (§1)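 6000 cells per well in RPMI 1640 with 10% FBS were treated with graded homoharringtonine derivative concentrations for 72 h at 37 °C, 5% CO2. Viability by MTT relative to untreated control (100%) gave 72 h IC50.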

[3] = system: Jurkat (acute lymphoblastic leukemia, ALL); test: MTT growth inhibition of leukemia cells, 72 h; assay type: cell-based, human; conditions: Homo sapiens, Jurkat
How it was run: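 Jurkat human acute lymphoblastic leukemia cells were seeded at 6000 cells per well in 96-well plates containing 1640 medium with 10% fetal bovine serum. Test compounds were added across a range of concentrations, and plates were held at 37° C. in 5% CO2 for 72 hours before viable cells were quantified by MTT.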

[4] = system: NB4 (acute promyelocytic leukemia, AML); test: MTT growth inhibition of leukemia cells, 72 h; assay type: cell-based, human
How it was run: as §1

[5] = system: H9 (acute lymphoblastic leukemia, ALL); test: MTT growth inhibition of leukemia cells, 72 h; assay type: cell-based, human
How it was run: as §1

[6] = system: K562/adr (drug-resistant, chronic myeloid leukemia, CML); test: MTT growth inhibition of leukemia cells, 72 h; assay type: cell-based, human
How it was run: as §1

[7] = system: RKO (human colon adenocarcinoma cell); test: MTT growth inhibition of human solid tumor cells, 72 h; assay type: cell-based
How it was run: (§2)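 Cells seeded at 4000/well in DMEM high glucose with 10% FBS and grown 24 h at 37° C, 5% CO2. They were then exposed to homoharringtonine derivatives at various concentrations for 72 h. Viability measured by MTT, expressed as % of untreated control.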

[8] = system: MG63 (osteosarcoma); test: as above; assay type: cell-based
How it was run: as §2

[9] = system: MGC-803 transplanted tumor of gastric cancer; test: Inhibition of transplanted tumor of gastric cancer in BALB/c-nu nude mice; assay type: in vivo; conditions: for Mass of tumor / Tumor Inhibition rate (%): MGC-803 in BALB/c-nu nude mice, 10 days, Day 27
Experimental: Gastric cancer cell lines: MGC-803
Animal: BALB/c-nu nude mice, 8 weeks, female, purchased from Shanghai Laboratory Animal Center of Chinese Academy of Sciences, China.
BS-HH-002, wherein BS-HH-002-0.1 indicates a dosage of 0.1 mg/kg each time, BS-HH-002-0.3 indicates a dosage of 0.3 mg/kg each time, BS-HH-002-0.5 indicates a dosage of 0.5 mg/kg each time, and BS-HH-002-1.0 indicates a dosage of 1.0 mg/kg each time.
Under sterile conditions, the above tumor cells in logarithmic growth phase are collected and injected in an amount of 2×10^7/0.2 ml/nude mice (cell viability>95%) into the right subaxillary of the nude mice by subcutaneous injection, thus establishing a BALB/c-nu nude mice model bearing transplanted tumor of gastric cancer. The mice are administered on the third day after the inoculation, wherein the experimental groups are intragastrically administered in an experimentally designed amount, and the negative control group is intragastrically administered with sterile water. Administration takes place at 8:00 for one time a day, at 8:00 and 14:00 for twice a day, and at 8:00, 14:00 and 20:00 with 6-hour intervals for three times day. The administrations are successive for 10 days. The day before administration is Day 0 and the weight and tumor size are determined approximately every 5 days to produce a plot on weight and tumor growth. On Day 27, the mice are dissected and the tumors are taken out and weighed. Based on a tumor inhibition rate of zero for the control group, the tumor inhibition rate (%) after the effect of the medicament is calculated.
The values determined are presented as mean±standard error (M±SD). The experimental data for each group are analyzed by the One-way ANOVA method of SPSS 18.0 Statistical Software, and p<0.05 is deemed as having statistically significant difference.

[10] = 0.1 mg/kg/time, 1 time/day intragastric
[11] = 0.1 mg/kg/time, 2 times/day intragastric
[12] = 0.1 mg/kg/time, 3 times/day intragastric
[13] = 0.3 mg/kg/time, 1 time/day intragastric
[14] = 0.5 mg/kg/time, 1 time/day intragastric
[15] = 0.5 mg/kg/time, 2 times/day intragastric
[16] = 0.5 mg/kg/time, 3 times/day intragastric
[17] = 1.0 mg/kg/time, 1 time/day intragastric
[18] = 1.0 mg/kg/time, 3 times/day intragastric

## COC(=O)C[C@](O)(CCCC(C)(C)OC(C)=O)C(=O)O[C@@H]1C(OC)=C[C@]23CCCN2CCc2cc4c(cc2[C@H]13)OCO4 [BS-HH-002, 6-acetylhomoharringtonine]
[1]
  anti-RPMI8226 (multiple myeloma) effectiveness: particularly effective
[1]; Homo sapiens, RPMI-8226, MTT
  IC50: 3 ng/mL (≈ 0.0051 µM)
  IC90: 18 ng/mL (≈ 0.0306 µM)
[2]; Homo sapiens, Kasumi 1, MTT
  IC50: 2 ng/mL (≈ 0.0034 µM)
  IC90: 7 ng/mL (≈ 0.0119 µM)
[2]; vs HHT
  improvement of anti-Kasumi-1 activity compared with homoharringtonine: more than 3.4 fold
[3]
  IC50: 3 ng/mL (≈ 0.0051 µM)
  IC90: ≥ 16000 ng/mL
[4]; Homo sapiens, MTT
  IC50: 2 ng/mL (≈ 0.0034 µM)
  IC90: 6 ng/mL (≈ 0.0102 µM)
[4]; vs HHT
  improvement of anti-NB4 activity compared with homoharringtonine: more than 3 fold
[5]; Homo sapiens, MTT
  IC50: 4 ng/mL (≈ 0.00681 µM)
  IC90: 10 ng/mL (≈ 0.017 µM)
[5]; vs HHT
  improvement of anti-H9 activity compared with homoharringtonine: more than 5 fold
[6]; Homo sapiens, K562/Adr, MTT
  IC50: 15 ng/mL (≈ 0.0255 µM)
  IC90: 310 ng/mL (≈ 0.528 µM)
[6]; vs HHT
  improvement of anti-K562/adr activity compared with homoharringtonine: more than 3.2 fold
[7]; Homo sapiens, MTT
  IC50: 2 ng/mL (≈ 0.0034 µM)
  IC90: 10 ng/mL (≈ 0.017 µM)
[7]; vs HHT
  anti-RKO effect relative to homoharringtonine: substantially superior
[8]; Homo sapiens, MG-63, MTT
  IC50: 6 ng/mL (≈ 0.0102 µM)
  IC90: 420 ng/mL (≈ 0.715 µM)
[8]; vs HHT
  anti-MG63 effect relative to homoharringtonine: substantially superior
[9]; BALB/c-nu nude mice, all dosing regimes 0.1-1.0 mg/kg
  tumor inhibition rate on gastric cancer: more than 40%
[9]; [10]
  Mass of tumor: 0.40 ± 0.18 g
  Tumor Inhibition rate (%): 48.97%
[9]; [11]
  Mass of tumor: 0.46 ± 0.11 g
  Tumor Inhibition rate (%): 40.90%
[9]; [12]
  Mass of tumor: 0.41 ± 0.09 g
  Tumor Inhibition rate (%): 48.14%
[9]; [13]
  Mass of tumor: 0.38 ± 0.13 g
  Tumor Inhibition rate (%): 51.76%
[9]; [14]
  Mass of tumor: 0.44 ± 0.13 g
  Tumor Inhibition rate (%): 43.81%
[9]; [15]
  Mass of tumor: 0.44 ± 0.18 g
  Tumor Inhibition rate (%): 43.43%
[9]; [16]
  Mass of tumor: 0.37 ± 0.18 g
  Tumor Inhibition rate (%): 52.12%
[9]; [17]
  Mass of tumor: 0.43 ± 0.17 g
  Tumor Inhibition rate (%): 44.58%
[9]; [18]
  Mass of tumor: 0.34 ± 0.05 g
  Tumor Inhibition rate (%): 56.67%
